Source: US5885990A, “Substituted amidinonaphthyl ester derivative” (Torii Pharmaceutical Co., Ltd., priority 1995, dated 1999)
Counter-ions that a name gives are not always drawn.

Assays:
[1] = tested on: pulmonary thrombosis of mouse models (thrombin-induced); test: Preventive effect on death due to pulmonary thrombosis of mouse models; format: in vivo; parameters: key: ratio of survival rate to positive control group's survival rate; conditions: ddy male mice, 10 mg/kg oral; thrombin 10 units/mouse via caudal vein after 6 hours; survival rate 16 hours after thrombin, as ratio to survival rate of positive control Sepimostat mesilate
Description: (1) Preventive effect on death due to pulmonary thrombosis of mouse models:
For experiment, ddy male mice after a fast of 6 hours were used and 10 mg/kg of the present compound was orally administered. […] After lapse of 6 hours, 10 units/mouse of thrombin was administered to the mice through caudal vein to cause thrombosis for the mice. After 16 hours from thrombin-induction, mortality was checked and the preventive effect on death (survival rate) was indicated by the ratio to the survival rate of the positive control group.

[2] = tested on: blood plasmin like activity; test: Determination of blood plasmin like activity using synthetic substrate (plasma after oral dosing); format: in vivo, rat; conditions: SD male rats, 100 mg/kg oral, substrate Boc-Val-Leu-Lys-MCA, pH 8.5, 37° C., 30 minutes, Water control 0.07
Description: (2) Test of determination of blood plasmin like activity using synthetic substrate:
For the test, SD male rats (8 weeks old) after fasted overnight were used, and 100 mg/kg of the present compound was orally administered to the rats, and blood was drawn, with time, from the descending aorta as citrate-containing blood and subjected to centrifugation to obtain plasma. Water was orally administered to the rats of control group and plasma was similarly obtained.
To the plasma obtained were added 0.1M borate buffer solution (pH 8.5) and Boc-Val-Leu-Lys-MCA and incubation was conducted at 37° C. for 30 minutes.

[3] = tested on: plasminogen activator inhibitor (PAI-1); test: Measurement of plasminogen activator inhibitor (PAI-1) antigen quantity in plasma; format: in vivo, rat; conditions: SD male rats, 100 mg/kg oral; plasma of Test (2); ELISA; Water control 54.2
Description: (3) Test of measurement of plasminogen activator inhibitor (PAI-1) antigen quantity:
Measurement of PAI-1 antigen quantity was conducted using the plasma obtained in the above Test (2).
Previously, 100 μl of a diluted 10 mM carbonate buffered solution of monoclonal antibody to PAI-1 was put in each well of a 96-well micro-titer plate and left to stand for 16 hours at 4° C., followed by washing, four times, with 10 mM phosphate buffer solution containing 0.1% Tween 20 and adding a standard solution and the plasma sample. After leaving for 2 hours at room temperature and washing again four times, 100 μl of an enzyme-labelled PAI-1 polyclonal antibody was added to carry out reaction at room temperature for 2 hours. After excess antibody was washed, 100 μl of citric acid buffer solution containing 10 mg of o-phenylenediamine and 0.1% hydrogen peroxide was added, followed by leaving it for 30 minutes at 30° C. to cause color formation. After the reaction was terminated by the addition of 50 μl of 2N sulfuric acid, absorbance at 405 nm was measured by a micro-plate reader to determine the PAI-1 antigen quantity in the plasma sample.

Row | SMILES | Preventive effect on death [1] | Plasmin like activity [2] [nmol/min/mL] | PAI-1 antigen quantity [3] [ng/mL]
1 | CN(C)c1ccc(C(=O)Oc2ccc3cc(C(=N)N)ccc3c2CC(N)=O)cc1 [Example 15, 6-amidino-1-carbamoylmethyl-2-naphthyl 4-dimethylaminobenzoate.dihydrochloride] | 1.05 | – | –
2 | CN(C)C(=O)COC(=O)c1c(OC(=O)c2ccc(NC3=NCCN3)cc2)ccc2cc(C(=N)N)ccc12 [Example 48, 6-amidino-1-dimethylcarbamoylmethoxycarbonyl-2-naphthyl 4-[(4,5-dihydro-1H-imidazol-2-yl)amino]benzoate.dihydrochloride] | 0.96 | – | –
3 | CNC(=N)Nc1ccc(C(=O)Oc2ccc3cc(C(=N)N)ccc3c2CC(N)=O)cc1 [Example 26, 6-amidino-1-carbamoylmethyl-2-naphthyl 4-methylaminoiminomethylaminobenzoate.dihydrochloride] | – | 0.60 | –
4 | Cl.Cl.N=C(N)Nc1ccc(C(=O)Oc2ccc3cc(C(=N)N)ccc3c2C=CC(N)=O)cc1 [Example 46, 6-amidino-1-(2-carbamoylvinyl)-2-naphthyl 4-aminoiminomethylaminobenzoate.dihydrochloride] | – | 0.63 | –
5 | CN=C(NC)Nc1ccc(C(=O)Oc2ccc3cc(C(=N)N)ccc3c2CC(N)=O)cc1 [Example 27, 6-amidino-1-carbamoylmethyl-2-naphthyl 4-methylaminomethyliminomethylaminobenzoate.dihydrochloride] | – | 0.52 | –
6 | CN(C)CCNC(=N)Nc1ccc(C(=O)Oc2ccc3cc(C(=N)N)ccc3c2CC(N)=O)cc1 [Example 17, 6-amidino-1-carbamoylmethyl-2-naphthyl 4-[(2-dimethylaminoethyl)aminoiminomethylamino]benzoate.trihydrochloride] | – | 0.62 | –
7 | COC(=O)Cc1c(OC(=O)c2ccc(NC3=NCCN3)cc2)ccc2cc(C(=N)N)ccc12 [Example 39, 6-amidino-1-methoxycarbonylmethyl-2-naphthyl 4-[(4,5-dihydro-1H-imidazol-2-yl)amino]benzoate.dimethanesulfonate] | 1.19 | 0.58 | –
8 | N=C(N)c1ccc2c(CC(N)=O)c(OC(=O)c3ccc(NC4=NCCN4)cc3)ccc2c1 [Example 1, 6-amidino-1-carbamoylmethyl-2-naphthyl 4-[(4,5-dihydro-1H-imidazol-2-yl)amino]-benzoate.dihydrochloride] | 1.16 | 0.37 | 28.5
9 | N=C(N)c1ccc2c(CC(N)=O)c(OC(=O)c3ccc(N)cc3)ccc2c1 [Example 12, 6-amidino-1-carbamoylmethyl-2-naphthyl 4-aminobenzoate.dihydrochloride] | 1.05 | – | –
10 | N=C(NCCN1CCCC1)Nc1ccc(C(=O)Oc2ccc3cc(C(=N)N)ccc3c2CC(N)=O)cc1 [Example 24] | – | 0.55 | –
11 | N=C(NCCO)Nc1ccc(C(=O)Oc2ccc3cc(C(=N)N)ccc3c2CC(N)=O)cc1 [Example 7, 6-amidino-1-carbamoylmethyl-2-naphthyl 4-[(2-hydroxyethyl)aminoiminomethylamino]-benzoate.dihydrochloride] | 1.05 | 0.62 | –
12 | CC(=O)NCCN=CNCNc1ccc(C(=O)Oc2ccc3cc(C(=N)N)ccc3c2CC(N)=O)cc1.Cl.Cl [Example 3, 6-amidino-1-carbamoylmethyl-2-naphthyl 4-[(2-acetylaminoethyl)iminomethylaminomethylamino]benzoate.dihydrochloride] | 1.09 | – | –
13 | N=C(N)c1ccc2c(CC(N)=O)c(OC(=O)c3ccc(NC4=NCCS4)cc3)ccc2c1 [Example 31, 6-amidino-1-carbamoylmethyl-2-naphthyl 4-[(4,5-dihydrothiazol-2-yl)amino]-benzoate.dihydrochloride] | 1.00 | – | –
14 | N=C(N)c1ccc2c(CCC(N)=O)c(OC(=O)c3ccc(NC4=NCCN4)cc3)ccc2c1 [Example 5, 6-amidino-1-(2-carbamoylethyl)-2-naphthyl 4-[(4,5-dihydro-1H-imidazol-2-yl)amino]-benzoate.dihydrochloride] | 1.00 | – | –
15 | N=C(N)c1ccc2c(CC(N)=O)c(OC(=O)c3ccc([N+](=O)[O-])cc3)ccc2c1 [Example 11, 6-amidino-1-carbamoylmethyl-2-naphthyl 4-nitrobenzoate.hydrochloride] | 1.12 | – | –
